# What was measured:
# [1] = target: T1, Chemerin-like receptor 1 (Homo sapiens) (UniProt Q99788); details: CAL1
# T1 sequence (whole entry): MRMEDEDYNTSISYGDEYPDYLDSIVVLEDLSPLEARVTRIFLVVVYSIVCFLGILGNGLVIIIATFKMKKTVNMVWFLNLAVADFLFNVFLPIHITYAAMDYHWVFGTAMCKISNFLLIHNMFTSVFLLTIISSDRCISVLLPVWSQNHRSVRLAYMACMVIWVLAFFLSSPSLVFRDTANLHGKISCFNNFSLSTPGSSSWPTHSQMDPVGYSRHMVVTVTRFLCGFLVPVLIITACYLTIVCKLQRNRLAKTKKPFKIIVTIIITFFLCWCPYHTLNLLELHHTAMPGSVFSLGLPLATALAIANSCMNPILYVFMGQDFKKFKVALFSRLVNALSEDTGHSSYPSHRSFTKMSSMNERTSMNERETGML
# [2] = AUC(0 to infinity) in cynomolgus monkey at 1 mg/kg, po; type: ADME, organism-based, Macaca fascicularis; design: time infinity, dose 1 mg/kg, route po; details: in vivo
# [3] = Drug concentration in cynomolgus monkey plasma at 1 mg/kg, po after 8 hrs; type: ADME, organism-based, Macaca fascicularis
# [4] = Cmax in cynomolgus monkey at 1 mg/kg, po; type: ADME, organism-based, Macaca fascicularis; design: dose 1 mg/kg, route po; details: in vivo
# [5] = AUC(0 to infinity) in cynomolgus monkey at 0.3 to 1 mg/kg, po; type: ADME, organism-based, Macaca fascicularis; design: route po; details: in vivo, dose 0.3-1 mg/kg
# [6] = MRT in cynomolgus monkey at 0.3 to 1 mg/kg, po; type: ADME, organism-based, Macaca fascicularis; details: in vivo, dose 0.3-1 mg/kg
# [7] = Half life in cynomolgus monkey at 0.3 to 1 mg/kg, po; type: ADME, organism-based, Macaca fascicularis; details: in vivo, dose 0.3-1 mg/kg
# [8] = Tmax in cynomolgus monkey at 0.3 to 1 mg/kg, po; type: ADME, organism-based, Macaca fascicularis; details: in vivo, dose 0.3-1 mg/kg
# [9] = Cmax in cynomolgus monkey at 0.3 to 1 mg/kg, po; type: ADME, organism-based, Macaca fascicularis; design: route po; details: in vivo, dose 0.3-1 mg/kg
# [10] = MRT in cynomolgus monkey at 0.3 mg/kg, po; type: ADME, organism-based, Macaca fascicularis; details: in vivo
# [11] = Half life in cynomolgus monkey at 0.3 mg/kg, po; type: ADME, organism-based, Macaca fascicularis; details: in vivo
# [12] = Drug concentration in cynomolgus monkey plasma at 0.3 mg/kg, po after 8 hrs; type: ADME, organism-based, Macaca fascicularis
# [13] = AUC(0 to infinity) in cynomolgus monkey at 0.3 mg/kg, po; type: ADME, organism-based, Macaca fascicularis; design: time infinity, dose 0.3 mg/kg, route po; details: in vivo
# [14] = Cmax in cynomolgus monkey at 0.3 mg/kg, po; type: ADME, organism-based, Macaca fascicularis; design: dose 0.3 mg/kg, route po; details: in vivo
# [15] = Tmax in cynomolgus monkey at 0.3 mg/kg, po; type: ADME, organism-based, Macaca fascicularis; details: in vivo
# [16] = target: T2, Chemerin-like receptor 1 (Homo sapiens, UniProt Q99788); assay: Inhibition of human ChemR23 expressed in CAL-1 cells assessed as reduction in chemerin-induced calcium signaling; type: functional, cell-based, CAL1
# T2 sequence (Q99788 whole entry): T1 sequence (whole entry)
# [17] = Half life in cynomolgus monkey at 1 mg/kg, po; type: ADME, organism-based, Macaca fascicularis; details: in vivo
# [18] = Tmax in cynomolgus monkey at 1 mg/kg, po; type: ADME, organism-based, Macaca fascicularis; details: in vivo
# [19] = MRT in cynomolgus monkey at 1 mg/kg, po; type: ADME, organism-based, Macaca fascicularis; details: in vivo
compound,measurement,setting,value
Cc1ccc(-c2nc(=O)o[nH]2)c(-c2ccc([C@@H](C)N(CC3CC3)c3nc(C(=O)NS(=O)(=O)C4CC4)c(-c4ccncc4)s3)cc2)c1,IC80,[1],74 nM
COc1cccc(-c2sc(N(CC3CC3)[C@H](C)c3ccc(-c4cc(C)ccc4-c4nc(=O)o[nH]4)cc3)nc2C(=O)NS(=O)(=O)C2CC2)c1,IC80,[1],42 nM
Cc1sc(N(CC2CC2)[C@H](C)c2ccc(-c3cc(Cl)ccc3-c3nc(=O)o[nH]3)cc2)nc1C(=O)NS(=O)(=O)C1CCCC1,AUC(0-inf),[2],1730 ng·h/mL
same,concentration at 8 h,[3],10 ng/mL
same,Cmax,[4],722 ng/mL
same,IC80,[1],66 nM
CCCc1sc(N(CC2CC2)[C@H](C)c2ccc(-c3cc(C)ccc3-c3nc(=O)o[nH]3)cc2)nc1C(=O)NS(=O)(=O)C1CC1,IC80,[1],25 nM
Cc1ccc(-c2nc(=O)o[nH]2)c(-c2ccc([C@@H](C)N(CC3CC3)c3nc(C(=O)NS(=O)(=O)C4CC4)c(-c4ccsc4)s3)cc2)c1,IC80,[1],> 330 nM
Cc1ccc(-c2nc(=O)o[nH]2)c(-c2ccc([C@@H](C)N(CC3CC3)c3nc(C(=O)NS(=O)(=O)C4CC4)c(C(C)C)s3)cc2)c1,concentration at 8 h,[3],1140 ng/mL
same,AUC(0-inf),[5],33800 ng·h/mL
same,MRT,[6],5.2 h
same,half-life,[7],2.4 h
same,Tmax,[8],4 h
same,Cmax,[9],5670 ng/mL
same,IC80,[1],18 nM
Cc1ccc(-c2nc(=O)o[nH]2)c(-c2ccc([C@@H](C)N(CC3CC3)c3nc(C(=O)NS(=O)(=O)C4CC4)c(C4CCOC4)s3)cc2)c1 (stereo not given in full),IC80,[1],12 nM
Cc1ccc(-c2nc(=O)o[nH]2)c(-c2ccc([C@@H](C)N(CC3CC3)c3nc(C(=O)NS(=O)(=O)C4CC4)c(C4CCC4)s3)cc2)c1,concentration at 8 h,[3],2600 ng/mL
same,AUC(0-inf),[5],55800 ng·h/mL
same,MRT,[6],5.7 h
same,half-life,[7],2.8 h
same,Tmax,[8],2.7 h
same,Cmax,[9],7910 ng/mL
same,IC80,[1],130 nM
CCc1sc(N(CC2CC2)[C@H](C)c2ccc(-c3cc(C)ccc3-c3nc(=O)o[nH]3)cc2)nc1C(=O)NS(=O)(=O)C1CC1,concentration at 8 h,[3],85.7 ng/mL
same,AUC(0-inf),[5],10300 ng·h/mL
same,MRT,[6],2.9 h
same,half-life,[7],3 h
same,Tmax,[8],1.7 h
same,Cmax,[9],5970 ng/mL
same,IC80,[1],63 nM
CCONC(=O)c1ccc(Cl)cc1-c1ccc([C@@H](C)N(CC2CC2)c2nc(C(=O)NS(=O)(=O)C3CC3)c(C3CC3)s2)cc1,MRT,[10],5.3 h
same,half-life,[11],2.6 h
same,concentration at 8 h,[12],87.7 ng/mL
same,AUC(0-inf),[13],2060 ng·h/mL
same,Cmax,[14],296 ng/mL
same,Tmax,[15],4 h
Cc1ccc(-c2nc(=O)o[nH]2)c(-c2ccc([C@@H](C)N(CC3CC3)c3nc(C(=O)NS(=O)(=O)C4CC4)c(CC(C)C)s3)cc2)c1,concentration at 8 h,[3],772 ng/mL
same,AUC(0-inf),[5],21900 ng·h/mL
same,MRT,[6],4.9 h
same,half-life,[7],2.3 h
same,Tmax,[8],2.7 h
same,Cmax,[9],4250 ng/mL
same,IC80,[1],42 nM
Cc1sc(N(CC2CC2)[C@H](C)c2ccc(-c3cc(Cl)ccc3-c3nc(=O)o[nH]3)cc2)nc1C(=O)O,AUC(0-inf),[2],2210 ng·h/mL
same,concentration at 8 h,[3],7.9 ng/mL
same,Cmax,[4],646 ng/mL
Cc1ccc(-c2nc(=O)o[nH]2)c(-c2ccc([C@@H](C)N(CC3CC3)c3nc(C(=O)NS(=O)(=O)C4CC4)c(C)s3)cc2)c1,concentration at 8 h,[3],233 ng/mL
same,AUC(0-inf),[5],12500 ng·h/mL
same,MRT,[6],4.2 h
same,half-life,[7],2.1 h
same,Tmax,[8],3.3 h
same,Cmax,[9],3180 ng/mL
same,IC80,[1],53 nM
Cc1sc(N(CC2CC2)[C@H](C)c2ccc(-c3cc(Cl)ccc3-c3nc(=O)o[nH]3)cc2)nc1C(=O)NS(=O)(=O)C1(C)CC1,IC80,[1],110 nM
CCS(=O)(=O)NC(=O)c1nc(N(CC2CC2)[C@H](C)c2ccc(-c3cc(Cl)ccc3-c3nc(=O)o[nH]3)cc2)sc1C,AUC(0-inf),[2],2170 ng·h/mL
same,concentration at 8 h,[3],14 ng/mL
same,Cmax,[4],716 ng/mL
Cc1sc(N(CC2CC2)[C@H](C)c2ccc(-c3cc(Cl)ccc3-c3nc(=O)o[nH]3)cc2)nc1C(=O)NS(=O)(=O)C1CC1,AUC(0-inf),[2],3740 ng·h/mL
same,concentration at 8 h,[3],18 ng/mL
same,Cmax,[4],1210 ng/mL
Cc1ccc(-c2nc(=O)o[nH]2)c(-c2ccc([C@@H](C)N(CC3CC3)c3nc(C(=O)NS(=O)(=O)C4CC4)c(-c4ccccc4)s3)cc2)c1,IC80,[1],> 330 nM
C[C@H](c1ccc(-c2cc(Cl)ccc2C(=O)NCCOCCOCCOCCOCCOCCOCCn2nnc3c2-c2ccccc2N(C(=O)CCNC(=O)CCOCCOCCOCCOCCNC(=O)CCCC[C@@H]2SC[C@@H]4NC(=O)N[C@@H]42)Cc2ccccc2-3)cc1)N(CC1CC1)c1nc(C(=O)NS(=O)(=O)C2CC2)c(C2CC2)s1,IC50,[16],14 nM
Cc1ccc(-c2nc(=O)s[nH]2)c(-c2ccc([C@@H](C)N(CC3CC3)c3nc(C(=O)NS(=O)(=O)C4CC4)c(C4CC4)s3)cc2)c1,AUC(0-inf),[2],39800 ng·h/mL
same,concentration at 8 h,[3],2090 ng/mL
same,Cmax,[4],4190 ng/mL
same,half-life,[17],3.2 h
same,Tmax,[18],4 h
same,MRT,[19],6.5 h
CNC(=O)c1ccc(Cl)cc1-c1ccc([C@@H](C)N(CC2CC2)c2nc(C(=O)NS(=O)(=O)C3CC3)c(C3CC3)s2)cc1,MRT,[10],6.4 h
same,half-life,[11],3.6 h
same,concentration at 8 h,[12],453 ng/mL
same,AUC(0-inf),[13],8720 ng·h/mL
same,Cmax,[14],897 ng/mL
same,IC80,[1],9 nM
same,Tmax,[15],4 h
Cc1ccc(-c2nc(=O)o[nH]2)c(-c2ccc([C@@H](C)N(CC3CC3)c3nc(C(=O)NS(=O)(=O)C4CC4)c(-c4ccoc4)s3)cc2)c1,IC80,[1],> 330 nM
CONC(=O)c1ccc(Cl)cc1-c1ccc([C@@H](C)N(CC2CC2)c2nc(C(=O)NS(=O)(=O)C3CC3)c(C3CC3)s2)cc1,MRT,[10],5.3 h
same,half-life,[11],3.3 h
same,concentration at 8 h,[12],116 ng/mL
same,AUC(0-inf),[13],3290 ng·h/mL
same,Cmax,[14],484 ng/mL
same,Tmax,[15],2.7 h
CNC(=O)c1ccc(C)cc1-c1ccc([C@@H](C)N(CC2CC2)c2nc(C(=O)NS(=O)(=O)C3CC3)c(C3CC3)s2)cc1,AUC(0-inf),[2],21400 ng·h/mL
same,concentration at 8 h,[3],996 ng/mL
same,Cmax,[4],2810 ng/mL
same,half-life,[17],3 h
same,Tmax,[18],4 h
same,MRT,[19],6.1 h
same,IC80,[1],57 nM
C[C@H](c1ccc(-c2cc(Cl)ccc2C(N)=O)cc1)N(CC1CC1)c1nc(C(=O)NS(=O)(=O)C2CC2)c(C2CC2)s1,MRT,[10],3.4 h
same,half-life,[11],1.8 h
same,concentration at 8 h,[12],68.9 ng/mL
same,AUC(0-inf),[13],2950 ng·h/mL
same,Cmax,[14],730 ng/mL
same,IC80,[1],9.8 nM
same,Tmax,[15],1.3 h
Cc1sc(N(CC2CC2)[C@H](C)c2ccc(-c3cc(Cl)ccc3-c3nc(=O)o[nH]3)cc2)nc1C(=O)NS(C)(=O)=O,AUC(0-inf),[2],726 ng·h/mL
same,concentration at 8 h,[3],4.2 ng/mL
same,Cmax,[4],216 ng/mL
Cc1ccc(-c2nc(=O)o[nH]2)c(-c2ccc([C@@H](C)N(CC3CC3)c3nc(C(=O)NS(=O)(=O)C4CC4)c(-c4cccnc4)s3)cc2)c1,IC80,[1],39 nM
CCNC(=O)CCC(=O)N1Cc2ccccc2-c2nnn(CCOCCOCCOCCOCCOCCOCCNC(=O)c3ccc(Cl)cc3-c3ccc([C@@H](C)N(CC4CC4)c4nc(C(=O)NS(=O)(=O)C5CC5)c(C5CC5)s4)cc3)c2-c2ccccc21,IC50,[16],9.1 nM
Cc1sc(N(CC2CC2)[C@H](C)c2ccc(-c3cc(Cl)ccc3-c3nc(=O)o[nH]3)cc2)nc1C(=O)NC1CC1,IC80,[1],> 330 nM
COCCc1sc(N(CC2CC2)[C@H](C)c2ccc(-c3cc(C)ccc3-c3nc(=O)o[nH]3)cc2)nc1C(=O)NS(=O)(=O)C1CC1,concentration at 8 h,[3],274 ng/mL
same,AUC(0-inf),[5],12800 ng·h/mL
same,MRT,[6],4.2 h
same,half-life,[7],2.6 h
same,Tmax,[8],2.7 h
same,Cmax,[9],3530 ng/mL
same,IC80,[1],33 nM
C[C@H](c1ccc(-c2cc(Cl)ccc2C(=O)O)cc1)N(CC1CC1)c1nc(C(=O)NS(=O)(=O)C2CC2)c(C2CC2)s1,IC80,[1],24 nM
